Measured values: US11912685B2, “Biphenyl diaryl pyrimidine derivative with aromatic heterocyclic structure” (priority 2021, dated 2024)

Experiments:
[1] = system: HIV-1-IIIB strain; experiment: Anti-HIV activity: protection of HIV-infected MT-4 cells from HIV-induced cytopathy (MTT assay); conditions: for SI(IIIB), selection index (CC50/EC50): HIV-1 IIIB, MT-4 cells; for EC50: Human immunodeficiency virus 1, IIIB, MT4
Procedure: (§1) The test was performed as follows. […] The toxicity test was performed in parallel with the anti-HIV activity test. […] Moreover, a selection index (SI=[…]) was also calculated.
The anti-HIV activity of the compound to be tested was evaluated by the inhibitory effect on the HIV-induced cytopathy in the cell.
Viruses: HIV-1-IIIB strain and HIV-2 ROD strain.
(§2) The compound to be tested was dissolved in DMSO or water and diluted gradiently with phosphate-buffered saline solution. […] 100 μL of a virus dilution at an appropriate concentration was added, and co-cultured with the MT-4 cells at 37° C. for 1 h. Then, the MT-4 cells were collected, washed three times, resuspended with a culture medium with or without the compound to be tested and cultured at 37° C. and 5% CO2 for 7 d. On the third day of the infection, the culture medium was correspondingly replaced with the culture medium with or without the compound to be tested. Each culture process was repeated twice. The HIV-induced cytopathy was monitored daily with a reverse optical microscope. […] Considering that the DMSO may affect the antiviral activity of the compound to be tested, it is necessary to design a blank control using the same concentration of DMSO.

[2] = system: MT-4 cells; experiment: Cytotoxicity in uninfected MT-4 cells (MTT assay); format: cell-based; conditions: Mean ± SD, at least three independent experiments
Procedure: as §1, §2

[3] = Cytotoxicity in uninfected MT-4 cells (MTT assay); format: cell-based; conditions: human, uninfected MT-4 cells, Mean ± SD, at least three independent experiments
Procedure: as §1, §2

[4] = prior art; cited from earlier work

Row | Structure (SMILES) | SI(IIIB), selection index (CC50/EC50) [1] | EC50 [1] | CC50 [2] | CC50 at 7 d [3] | water solubility [4]
1 | Cc1cc(-c2cc(F)c(Nc3ccnc(Nc4ccc(C#N)cc4)n3)c(F)c2)cc(C)n1 [compound 21] | 21 | 56 ± 18 nM | 1200 ± 110 nM | – | –
2 | N#Cc1ccc(Nc2nccc(Nc3c(F)cc(-c4coc5ccccc45)cc3F)n2)cc1 [compound 12] | 1991 | 44 ± 10.1 nM | 87000 ± 54000 nM | – | –
3 | N#Cc1ccc(Nc2nccc(Nc3c(F)cc(-c4csc5ccccc45)cc3F)n2)cc1 [compound 13] | 132 | 124 ± 78 nM | 16000 ± 6000 nM | – | –
4 | N#Cc1ccc(Nc2nccc(Nc3c(F)cc(-c4cc(F)nc(F)c4)cc3F)n2)cc1 [compound 16] | 1966 | 5.6 ± 1.5 nM | 11000 ± 6800 nM | – | –
5 | N#Cc1ccc(Nc2nccc(Nc3c(F)cc(-c4ccco4)cc3F)n2)cc1 [compound 4] | 7910 | 2.1 nM | 16600 ± 6900 nM | – | –
6 | N#Cc1ccc(Nc2nccc(Nc3c(F)cc(-c4ccnc(F)c4F)cc3F)n2)cc1 [compound 17] | >147,059 | 2 ± 0.48 nM | > 286000 nM | – | –
7 | N#Cc1ccc(Nc2nccc(Nc3c(F)cc(-c4cccs4)cc3F)n2)cc1 [compound 6] | >74,627 | 4.1 ± 2 nM | > 308000 nM | – | –
8 | Cc1ccnc2c1NC(=O)c1cccnc1N2C1CC1 [NVP, Nevirapine, reference compound] | – | – | – | > 15000 nM | –
9 | N#Cc1ccc(Nc2nccc(Nc3c(F)cc(-c4ccnc(C#N)c4F)cc3F)n2)cc1 [compound 14] | >142,857 | 1.98 ± 0.42 nM | > 282000 nM | – | –
10 | N#Cc1ccc(Nc2nccc(Nc3c(F)cc(-c4ccnc(Cl)c4)cc3F)n2)cc1 [compound 18] | 622 | 6.8 ± 3.4 nM | 4200 ± 450 nM | – | –
11 | COc1cc(-c2cc(F)c(Nc3ccnc(Nc4ccc(C#N)cc4)n3)c(F)c2)ccn1 [compound 22] | 501 | 13 ± 2.9 nM | 6700 ± 980 nM | – | –
12 | N#Cc1ccc(Nc2nccc(Nc3c(F)cc(-c4ccoc4)cc3F)n2)cc1 [compound 5] | 3291 | 3.2 ± 0.18 nM | 10600 ± 1800 nM | – | –
13 | Cc1cc(-c2cc(F)c(Nc3ccnc(Nc4ccc(C#N)cc4)n3)c(F)c2)ccn1 [compound 20] | 777 | 4.1 ± 1.1 nM | 3200 ± 1100 nM | – | –
14 | N#Cc1ccc(Nc2nccc(Nc3c(F)cc(-c4ccnc(-c5ccnc(Cl)c5)c4)cc3F)n2)cc1 [compound 19] | 3068 | 16.8 ± 3 nM | 51000 ± 41000 nM | – | –
15 | N#Cc1ccc(Nc2nccc(Nc3c(F)cc(-c4cn[nH]c4)cc3F)n2)cc1 [compound 8] | 298 | 10 ± 6 nM | 3100 ± 1700 nM | – | –
16 | N#Cc1ccc(Nc2nccc(Nc3c(F)cc(-c4ccnc(F)c4)cc3F)n2)cc1 [compound 9] | 1311 | 3.8 ± 3.2 nM | 5000 ± 900 nM | – | –
17 | N#Cc1ccc(Nc2nccc(Nc3c(F)cc(-c4ccsc4)cc3F)n2)cc1 [compound 7] | 14032 | 3.9 ± 1.4 nM | 55400 ± 18700 nM | – | –
18 | N#Cc1ccc(Nc2nccc(Nc3c(F)cc(-c4cccnc4)cc3F)n2)cc1 [compound 2] | 32,698 | 7.4 ± 1.76 nM | 242000 ± 42000 nM | – | –
19 | N#Cc1ccc(Nc2nccc(Nc3c(F)cc(-c4ccnc(Cl)c4Cl)cc3F)n2)cc1 [compound 11] | 3673 | 5.5 ± 0.7 nM | 20000 ± 16000 nM | – | –
20 | N#Cc1ccc(Nc2nccc(Nc3c(F)cc(-c4cc(Cl)nc(Cl)c4)cc3F)n2)cc1 [compound 10] | 97 | 56 ± 32.6 nM | 5400 ± 540 nM | – | –
21 | N#Cc1ccc(Nc2nccc(Nc3c(F)cc(-c4ccc(N)cc4)cc3F)n2)cc1 [compound 23] | >32,895 | 9.2 ± 3.6 nM | > 303000 nM | – | –
22 | Cc1cc(C#N)cc(C)c1Oc1nc(Nc2ccc(C#N)cc2)nc(N)c1Br [ETR, Etravirine, reference compound] | >1159 | 4 ± 0.68 nM | > 4600 nM | – | < 1 µg/mL
23 | N#Cc1ccc(Nc2nccc(Nc3c(F)cc(-c4cncnc4)cc3F)n2)cc1 [compound 3] | 229 | 11.9 ± 3.2 nM | 2700 ± 1700 nM | – | –
24 | O=C1Nc2ccc(Cl)cc2[C@@](C#CC2CC2)(C(F)(F)F)O1 [EFV, Efavirenz, reference compound] | >1600 | 4 ± 1.5 nM | > 6330 nM | – | –
25 | N#Cc1ccc(Nc2nccc(Nc3c(F)cc(-c4ccncc4F)cc3F)n2)cc1 [compound 15] | 2566 | 1.3 ± 0.6 nM | 3300 ± 1500 nM | – | –
